The subject of test [1] is S. aureus PC1(Meth^S)(lac^+). Briefly: In vitro MIC, agar dilution. The format is cell-based. The settings on record: Staphylococcus aureus, read-out: minimum inhibitory concentration (MIC). The method in brief:
(§1)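 Strains were spotted at roughly 10^4 cfu onto drug-containing Mueller-Hinton agar. MIC was read as the lowest inhibitory concentration after overnight incubation at 35-36 °C.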

The subject of test [2] is S. aureus ATCC 13709(Meth^S). The experiment in a line: In vitro MIC, agar dilution. The format is cell-based. The settings on record: Staphylococcus aureus, ATCC13709, S. aureus ATCC 13709(Meth^S); read-out: minimum inhibitory concentration (MIC). In short, it runs like this:
as §1

The test system of test [3] is E. faecium VanA(Van^R). The experiment in a line: In vitro MIC, agar dilution. The format is cell-based. The settings on record: Enterococcus faecium, read-out: minimum inhibitory concentration (MIC). The method in brief: as §1
A general note: Agar dilution tests growth on a series of plates holding different concentrations.

For test [4], the system named is S. aureus 76(Meth^R)(lac^+). The experiment in a line: In vitro MIC, agar dilution. The format is cell-based. The settings on record: Staphylococcus aureus, read-out: minimum inhibitory concentration (MIC). In short, it runs like this: as §1
Test [5] concerns E. coli ATCC 25992. The experiment in a line: In vitro MIC, agar dilution. The format is cell-based. To be noted: Escherichia coli, ATCC25992, read-out: minimum inhibitory concentration (MIC). The method in brief:
as §1

Test [6] concerns S. aureus ATCC 33593(Meth^R). The experiment in a line: In vitro MIC, agar dilution. The format is cell-based. The settings on record: Staphylococcus aureus, ATCC33593, read-out: minimum inhibitory concentration (MIC). In short, it runs like this:
as §1

Test [7] concerns P. aeruginosa ATCC 27853. The experiment in a line: In vitro MIC, agar dilution. The format is cell-based. The settings on record: Pseudomonas aeruginosa, ATCC27853, read-out: minimum inhibitory concentration (MIC). In short, it runs like this:
as §1

Test [8] concerns S. aureus Spain #356(Meth^R). Briefly: In vitro MIC, agar dilution. The format is cell-based. To be noted: Staphylococcus aureus, read-out: minimum inhibitory concentration (MIC). In short, it runs like this:
as §1

Test [9] has as its system S. haemolyticus 05(Meth^R). Briefly: In vitro MIC, agar dilution. The format is cell-based. To be noted: Staphylococcus haemolyticus, read-out: minimum inhibitory concentration (MIC). In short, it runs like this:
as §1

The subject of test [10] is S. aureus ATCC 29213. The experiment in a line: In vitro MIC, agar dilution. The format is cell-based. To be noted: Staphylococcus aureus, ATCC29213, read-out: minimum inhibitory concentration (MIC). In short, it runs like this:
as §1

Test [11] relates to E. faecium A491(Amp^R). The experiment in a line: In vitro MIC, agar dilution. The format is cell-based. The settings on record: Enterococcus faecium, read-out: minimum inhibitory concentration (MIC). In short, it runs like this:
as §1

Test [12] deals with E. faecalis VanB(Van^R). The experiment in a line: In vitro MIC, agar dilution. The settings on record: Enterococcus faecalis, read-out: minimum inhibitory concentration (MIC). The format is cell-based. The method in brief:
as §1

The test system of test [13] is E. faecalis ATCC 29212. The experiment in a line: In vitro MIC, agar dilution. The format is cell-based. The settings on record: Enterococcus faecalis, ATCC29212, read-out: minimum inhibitory concentration (MIC). The method in brief: as §1
Test [14] relates to S. aureus Col(Meth^R)(lac^-). The experiment in a line: In vitro MIC, agar dilution. The format is cell-based. The settings on record: Staphylococcus aureus, read-out: minimum inhibitory concentration (MIC). The method in brief: (§2)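 Two-fold dilutions (128 to ≤0.25 μg/mL, in duplicate) were poured into Mueller-Hinton agar. Log-phase broth cultures were spot-inoculated at about 10^4 cfu per spot and incubated 35-36°C for 16-20 hours; the MIC was the lowest concentration inhibiting growth. Col is a high-level PBP2a producer; Col 8A is its isogenic PBP2a-lacking partner.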

Test [15] concerns S. aureus Col8A(Meth^S)(lac^-). Briefly: In vitro MIC, agar dilution. The format is cell-based. To be noted: Staphylococcus aureus; S. aureus Col8A(Meth^S)(lac^-); read-out: minimum inhibitory concentration (MIC). The method in brief:
as §2

For test [16], the system named is S. aureus strain ATCC 13709 (methicillin-susceptible). The experiment in a line: Murine model for lethal bacteremic peritonitis. The settings on record: Staphylococcus aureus, ATCC13709, SC, 72 h; for responders at 1.25 mg/kg: read-out: Survivors (converted); for ED50: two equal doses, IP challenge, read-out: ED50. The format is in vivo, female Swiss-Webster mice. In short, it runs like this: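 Female Swiss-Webster mice were challenged IP with an LD100 inoculum in 7% hog gastric mucin, then given test drug subcutaneously in twofold increments (0.01–512 mg/kg) as two equal doses at challenge and 2 h later, 10 mice per group. Survival was scored at 72 h; PD50 (total mg/kg) was derived by probit.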

For test [17], the system named is E. faecium ATCC 35667. The experiment in a line: In vitro MIC, agar dilution. To be noted: Enterococcus faecium, ATCC35667, read-out: minimum inhibitory concentration (MIC). The format is cell-based. The method in brief:
as §1

Here are results for six compounds from patent US6087355A, “Cephalosporin antibiotics” (Microcide Pharmaceuticals, Inc., priority 1996, dated 2000).

Counter-ions that a name gives are not always drawn.

Take `Nc1nc(/C(=N/O)C(=O)N[C@@H]2C(=O)N3C(C(=O)O)=C(Sc4ccncc4CSC[C@H](N)CO)CS[C@H]23)c(Cl)s1` [Cmpd 65, (7R)-7-[(Z)-2-(2-amino-5-chlorothiazol-4-yl)-2-(hydroxyimino)acetamido]-3-[3-(2R-2-amino-3-hydroxyprop-1-ylthiomethyl)pyrid-4-ylthio]-3-cephem-4-carboxylate, trifluoroacetic acid salt]: the MIC in [1] came out at 1 µg/mL; in test [2], 0.5 µg/mL; in [3], 2 µg/mL; in [4], 4 µg/mL; in test [5], 16 µg/mL; in test [6], 4 µg/mL. Further, the MIC was above 32 µg/mL in [7]; 4 µg/mL in test [8]; 4 µg/mL in test [9]; 0.5 µg/mL in [10]; 16 µg/mL in test [11]; 0.5 µg/mL in test [12]. The MIC in [13] stood at 0.25 µg/mL; in test [14] it was 2 µg/mL; in test [15], 0.5 µg/mL. Moreover, the responders at 0.3125 mg/kg in test [16] (read-out: Survivors) was 10%. For the same compound, the responders at 0.625 mg/kg in [16] (read-out: Survivors) came to 20%. The responders at 1.25 mg/kg in test [16] was 10%. Besides, in test [16] (read-out: Survivors), the responders at 2.5 mg/kg came out at 30%. The responders at 5 mg/kg in test [16] (Dose 5 mg/kg, read-out: Survivors) stood at 80%. Further, the ED50 (usually the dose at which the effect has come halfway, by size or by number of responders) in test [16] stood at 3.1 mg/kg.
`N=C(N)SCc1nnsc1SC1=C(C(=O)O)N2C(=O)[C@@H](NC(=O)Cc3ccccc3)[C@H]2SC1` [Cmpd 2, (7R)-7-[(phenylacetyl)amino]-3-(4-isothioureidomethyl-1,2,3-thiadiazol-5-ylthio)-3-cephem-4-carboxylate, trifluoroacetic acid salt]: the MIC in test [1] was 0.5 µg/mL; in test [3] it was 4 µg/mL; in [4], 4 µg/mL; in test [5] it was 16 µg/mL; in test [6], 4 µg/mL; in test [7], above 32 µg/mL. Further, the MIC is 4 µg/mL in test [8]; 4 µg/mL in test [9]; at most 0.06 µg/mL in [10]; 1 µg/mL in test [17]; above 32 µg/mL in test [11]; 0.5 µg/mL in [12]. Moreover, the values for the MIC in test [13], in [14] and in test [15] were 0.5 µg/mL, 1 µg/mL and at most 0.06 µg/mL, respectively.
With `NCCSCc1cnccc1SC1=C(C(=O)O)N2C(=O)[C@@H](NC(=O)/C(=N\O)c3nc(N)sc3Br)[C@H]2SC1.O=C(O)C(F)(F)F` [Cmpd 21, (7R)-7-[(Z)-2-(2-amino-5-bromothiazol-4-yl)-2-(hydroxyimino)acetamido]-3-(3-aminoethylthiomethylpyrid-4-ylthio)-3-cephem-4-carboxylate, trifluoroacetic acid salt], the MIC was found to be 0.5 µg/mL in test [1]; 1 µg/mL in test [2]; 1 µg/mL in test [3]; 1 µg/mL in [4]; 32 µg/mL in test [5]; 1 µg/mL in [6]. Besides, the MIC in [7] is above 32 µg/mL; in [8] it was 1 µg/mL; in test [9] it was 2 µg/mL; in [10], 0.25 µg/mL; in [17], 0.5 µg/mL; in test [11], 8 µg/mL. Also, the MIC in test [12] amounted to 0.13 µg/mL; in test [13], 0.13 µg/mL; in test [14], 1 µg/mL; in test [15], 0.25 µg/mL.
As for `N=C(N)SCc1ncsc1SC1=C(C(=O)O)N2C(=O)[C@@H](NC(=O)/C(=N\O)c3csc(N)n3)[C@H]2SC1` [Cmpd 7, (7R)-7-[(Z)-2-(aminothiazol-4-yl)-2-(hydroxyimino)acetamido]-3-(4-isothioureidomethylthiazol-5-ylthio)-3-cephem-4-carboxylate, trifluoroacetic acid salt], the MIC in test [1] came out at 2 µg/mL; in [2] it was 0.5 µg/mL; in [3] it was 16 µg/mL; in test [4], 8 µg/mL; in [5], 4 µg/mL; in test [6], 8 µg/mL. The MIC in test [7] was above 32 µg/mL; in [8] it was 8 µg/mL; in [9], 32 µg/mL; in [10] it was 0.5 µg/mL; in test [17] it was 4 µg/mL; in test [11], above 32 µg/mL. Further, the MIC amounted to 2 µg/mL in [12], 1 µg/mL in test [13], 8 µg/mL in [14] and 0.5 µg/mL in [15].
With `NCCCCCOCc1cnccc1SC1=C(C(=O)O)N2C(=O)[C@@H](NC(=O)/C(=N\O)c3nc(N)sc3Cl)[C@H]2SC1` [Cmpd 44, (7R)-7-[(Z)-2-(2-amino-5-chlorothiazol-4-yl)-2-(hydroxyimino)acetamido]-3-(3-(5-aminopentyloxymethyl)pyrid-4-ylthio)-3-cephem-4-carboxylate, trifluoroacetic acid salt], the MIC in test [1] amounted to 2 µg/mL; in test [2], 2 µg/mL; in test [3], 2 µg/mL; in test [4], 4 µg/mL; in test [5] it was 8 µg/mL; in [6], 4 µg/mL. The MIC in test [7] is above 32 µg/mL; in [8], 4 µg/mL; in test [9], 8 µg/mL; in test [10], 0.5 µg/mL; in test [17], 4 µg/mL; in [11], 16 µg/mL. Also, the MIC came out at 0.13 µg/mL in [13], 4 µg/mL in test [14] and 0.5 µg/mL in test [15].
As for `N=C(N)SCc1cnccc1SC1=C(C(=O)O)N2C(=O)[C@@H](NC(=O)Cc3ccccc3)[C@H]2SC1` [Cmpd 1, (7R)-7-[(phenylacetyl)amino]-3-(3-isothioureidomethylpyrid-4-ylthio)-3-cephem-4-carboxylate, trifluoroacetic acid salt], the MIC in [1] is 1 µg/mL; in test [3], 8 µg/mL; in test [4] it was 8 µg/mL; in test [5] it was above 32 µg/mL; in test [6], 8 µg/mL; in test [7], above 32 µg/mL. Further, the MIC in test [8] is 8 µg/mL; in test [9], 16 µg/mL; in test [10] it was 0.13 µg/mL; in [17], 2 µg/mL; in [11] it was above 32 µg/mL; in test [12], 4 µg/mL. Moreover, the MIC in test [13] is 1 µg/mL; in test [14], 4 µg/mL; in [15] it was at most 0.06 µg/mL. In addition, the responders at 0.156 mg/kg in test [16] (Dose 0.156 mg/kg, read-out: Survivors) came out at 20%. Besides, the responders at 0.3125 mg/kg in [16] (read-out: Survivors) turned out to be 50%. In addition, the responders at 0.625 mg/kg in test [16] (read-out: Survivors) came out at 60%. Besides, in test [16], the responders at 1.25 mg/kg is 80%. The responders at 2.5 mg/kg in [16] (read-out: Survivors) came to 100%. The ED50 in [16] worked out at 0.39 mg/kg.
